Results from paper PMC12687421, “Characterisation of an allosteric site in PLCγ enzymes and implications for development of their specific inhibitors” (Biochemical Journal, 2025).
One block for each compound: values may come before it.

Key:
[1] = molecular target: T1, PLCδ1^Δ44 (Homo sapiens, UniProt P51178, DEL445-487); experiment: IP-ONE assay in HEK stable cell line expressing PLCδ1^Δ44; assay type: cell-based
T1 construct: Avi-tag (N); His-tag (N); expressed in transfected cells
T1 sequence (P51178 with tags, fused parts or gaps DEL445-487): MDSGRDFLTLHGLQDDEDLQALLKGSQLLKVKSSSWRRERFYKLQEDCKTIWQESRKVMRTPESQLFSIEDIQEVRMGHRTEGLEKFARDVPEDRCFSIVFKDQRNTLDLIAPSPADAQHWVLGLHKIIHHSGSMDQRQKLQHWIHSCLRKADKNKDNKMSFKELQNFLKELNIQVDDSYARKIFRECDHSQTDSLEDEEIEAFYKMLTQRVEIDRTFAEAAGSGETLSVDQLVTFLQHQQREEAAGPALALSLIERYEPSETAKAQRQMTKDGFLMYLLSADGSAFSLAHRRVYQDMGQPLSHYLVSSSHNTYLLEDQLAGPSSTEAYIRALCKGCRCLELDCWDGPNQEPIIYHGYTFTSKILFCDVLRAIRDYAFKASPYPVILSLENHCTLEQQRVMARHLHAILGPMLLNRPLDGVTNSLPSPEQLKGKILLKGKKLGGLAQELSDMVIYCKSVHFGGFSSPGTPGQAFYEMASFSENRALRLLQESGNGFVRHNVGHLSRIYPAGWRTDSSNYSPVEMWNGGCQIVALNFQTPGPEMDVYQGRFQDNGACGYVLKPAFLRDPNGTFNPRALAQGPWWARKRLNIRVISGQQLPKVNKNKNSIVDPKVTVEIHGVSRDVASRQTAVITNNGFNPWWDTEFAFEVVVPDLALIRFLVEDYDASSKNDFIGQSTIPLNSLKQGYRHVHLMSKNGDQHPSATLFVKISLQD
Source text: (§1) For generating HEK cell lines that stably express PLC variants, an in-house Gateway compatible, Lenti viral vector was generated using In-Fusion cloning (Takara Bio) following manufacturer’s protocols. The vector backbone consisted of pLenti PGK Puro DEST (Addgene 19068). A KOZAK sequence, Avi-tag and His-tag (KAH cassette) was inserted between the PGK promoter and the attR1 vector regions. An IRES2 EmGFP cassette was inserted between the attR2 and WPRE regions. Both cassettes were PCR amplified from vector pHR-CMV-TetO2_3C-Avi-His6_IRES-EmGFP (Addgene 113888). Finally, a BirA ORF was cloned in-frame upstream of the EmGFP, which would express as a BirA-EmGFP fusion protein. The resulting Gateway compatible destination vector was used in the LR reaction (Thermo Fisher) with pENTR207 clones containing the PLCγ1^S345F or an activated version of PLCδ1, where the amino acids 445–487 had been deleted (PLCδ1Δ^44), to generate their respective expression clones ready for preparing stable cell lines in HEK.
(§2) Stable cell lines overexpressing PLCγ1^S345F or PLCδ1^Δ44 were prepared as described in [28]. […] Fluorescence-activated cell sorting (FACS) was used to select the top 10% of GFP-expressing cells. […]
(§3) PLC activity in cell lines was measured using the IP-ONE assay according to the manufacturer’s instructions as described in [28]. […]

[2] = molecular target: T2, PLCγ1^S345F (Homo sapiens, UniProt P19174, S345F); experiment: IP-ONE assay in HEK stable cell line expressing PLCγ1^S345F; assay type: cell-based
T2 construct: Avi-tag (N); His-tag (N); expressed in transfected cells
T2 sequence (P19174 1-1290 S345F): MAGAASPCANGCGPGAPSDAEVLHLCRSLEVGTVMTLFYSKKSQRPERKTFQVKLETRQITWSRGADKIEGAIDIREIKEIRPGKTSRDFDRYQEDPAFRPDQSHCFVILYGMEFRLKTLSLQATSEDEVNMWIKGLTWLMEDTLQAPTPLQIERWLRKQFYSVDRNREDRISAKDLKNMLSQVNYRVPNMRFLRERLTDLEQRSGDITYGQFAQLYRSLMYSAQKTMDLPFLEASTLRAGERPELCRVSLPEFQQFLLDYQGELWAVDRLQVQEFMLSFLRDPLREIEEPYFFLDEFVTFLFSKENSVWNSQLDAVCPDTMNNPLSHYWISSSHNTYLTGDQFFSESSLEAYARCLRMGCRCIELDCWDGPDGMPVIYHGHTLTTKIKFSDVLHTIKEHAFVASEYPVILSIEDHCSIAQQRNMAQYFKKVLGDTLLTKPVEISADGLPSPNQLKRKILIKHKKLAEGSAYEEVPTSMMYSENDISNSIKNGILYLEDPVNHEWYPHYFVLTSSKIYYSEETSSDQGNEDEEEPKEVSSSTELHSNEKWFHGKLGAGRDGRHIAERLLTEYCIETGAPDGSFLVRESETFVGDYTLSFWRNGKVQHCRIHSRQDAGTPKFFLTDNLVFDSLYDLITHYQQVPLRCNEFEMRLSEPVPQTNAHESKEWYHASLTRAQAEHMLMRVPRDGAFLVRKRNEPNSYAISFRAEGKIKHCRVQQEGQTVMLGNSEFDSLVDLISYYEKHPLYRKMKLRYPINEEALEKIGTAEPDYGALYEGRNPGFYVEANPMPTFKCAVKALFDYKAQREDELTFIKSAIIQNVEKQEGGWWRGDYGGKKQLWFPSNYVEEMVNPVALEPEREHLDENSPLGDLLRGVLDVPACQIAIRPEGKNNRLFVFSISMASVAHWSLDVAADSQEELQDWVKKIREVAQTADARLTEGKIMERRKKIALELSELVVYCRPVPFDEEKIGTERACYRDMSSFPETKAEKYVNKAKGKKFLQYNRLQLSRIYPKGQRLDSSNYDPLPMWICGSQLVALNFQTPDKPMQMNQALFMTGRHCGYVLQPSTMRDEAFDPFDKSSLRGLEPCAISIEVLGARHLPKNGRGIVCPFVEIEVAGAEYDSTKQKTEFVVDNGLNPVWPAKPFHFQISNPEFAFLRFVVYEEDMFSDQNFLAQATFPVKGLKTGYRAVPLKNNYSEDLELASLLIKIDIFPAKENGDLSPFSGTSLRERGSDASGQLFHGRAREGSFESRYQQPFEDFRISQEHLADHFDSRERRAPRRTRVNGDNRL
Source text: as §1, §2, §3

[3] = molecular target: T3, PLCγ1^S345F (Homo sapiens, UniProt P19174, I813T/S345F); experiment: Fluorescence polarisation competition with TNP-ATP; assay type: binding; settings: fixed TNP-ATP
T3 construct: His-tag (N); Myc-tag (C); made in house; host or cells: Escherichia coli T7 Express lysY/Iq
T3 sequence (P19174 1-1291 isoform P19174-2 S345F/I813T): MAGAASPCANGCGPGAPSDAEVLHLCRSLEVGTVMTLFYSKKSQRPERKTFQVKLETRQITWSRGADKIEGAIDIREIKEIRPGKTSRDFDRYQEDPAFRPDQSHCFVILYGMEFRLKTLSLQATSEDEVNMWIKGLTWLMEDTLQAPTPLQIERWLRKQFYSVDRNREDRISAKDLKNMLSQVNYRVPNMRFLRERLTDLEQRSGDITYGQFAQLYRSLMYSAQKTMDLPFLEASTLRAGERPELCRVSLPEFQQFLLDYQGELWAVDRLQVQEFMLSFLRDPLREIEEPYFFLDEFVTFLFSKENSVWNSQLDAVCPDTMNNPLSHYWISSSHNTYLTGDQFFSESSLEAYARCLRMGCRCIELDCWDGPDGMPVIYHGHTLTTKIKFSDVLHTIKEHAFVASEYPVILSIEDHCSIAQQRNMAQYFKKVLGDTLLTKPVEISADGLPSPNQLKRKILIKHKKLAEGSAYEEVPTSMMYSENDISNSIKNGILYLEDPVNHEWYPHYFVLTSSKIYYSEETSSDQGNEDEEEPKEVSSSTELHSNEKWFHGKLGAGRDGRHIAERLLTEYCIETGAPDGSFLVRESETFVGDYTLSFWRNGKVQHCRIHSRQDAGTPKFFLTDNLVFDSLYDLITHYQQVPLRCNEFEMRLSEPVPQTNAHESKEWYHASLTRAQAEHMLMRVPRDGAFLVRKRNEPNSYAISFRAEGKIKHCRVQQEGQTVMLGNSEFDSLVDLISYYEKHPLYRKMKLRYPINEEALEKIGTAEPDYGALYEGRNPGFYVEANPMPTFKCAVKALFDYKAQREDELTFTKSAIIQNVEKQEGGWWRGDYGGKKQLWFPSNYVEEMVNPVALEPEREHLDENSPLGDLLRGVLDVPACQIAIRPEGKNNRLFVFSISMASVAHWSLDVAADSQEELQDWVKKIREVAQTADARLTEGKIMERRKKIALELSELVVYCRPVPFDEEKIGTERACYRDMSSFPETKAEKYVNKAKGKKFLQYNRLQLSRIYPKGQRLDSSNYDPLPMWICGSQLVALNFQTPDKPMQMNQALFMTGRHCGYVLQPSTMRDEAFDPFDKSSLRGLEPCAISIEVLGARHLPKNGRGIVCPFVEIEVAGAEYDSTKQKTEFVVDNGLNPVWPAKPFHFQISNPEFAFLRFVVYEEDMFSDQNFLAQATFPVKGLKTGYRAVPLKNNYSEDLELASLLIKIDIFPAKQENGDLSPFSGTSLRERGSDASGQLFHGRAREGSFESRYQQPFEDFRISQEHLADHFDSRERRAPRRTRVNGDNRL
Description: Experiments were performed in black small volume 384-well plates (Greiner) on a Pherastar FS microplate reader (BMG Labtech) utilising an FP module with Excitation 485 nm and Emission 520 nm. […] PLCγ1^S345F protein was titrated against the fixed concentration of TNP-ATP and the FP data fit in GraphPad Prism using the One site Total binding model. […] Equal amounts of DMSO only were added in a parallel FP experiment. Generated data was also fit in GraphPad Prism using the One site -Total binding model. Each experiment was performed in triplicate and the data presented as the mean and SD.

[4] = tested on: disease mouse model; design: method as in PMID 30429604, PMID 31548507; settings: cited from earlier work
[5] = tested on: CD95–PLCγ1 interaction; design: method as in PMID 30429604, PMID 31548507; settings: cited from earlier work

effect on PLC activity of PLCδ1 in stable cell line [1]: no effect | IC50, PLC activity (IP1) in stable cell line ([1]; PLCδ1 Δ44): no inhibition | inhibition of PLC activity of PLCγ1^S345F in cell-based assay [2]: potently inhibited | IC50 ([2]; PLCγ1 S345F, read-out: IC50, PLC activity (IP1) in stable cell line): 1.6 µM
SMILES: CC(=O)OC[C@H]1O[C@@H](n2ncc(=O)[nH]c2=O)[C@H](OC(C)=O)[C@@H]1OC(C)=O [Azaribine]

competition with binding of fluorescently labelled ATP analogue (TNP-ATP) [3]: competed
SMILES: O=P(O)(O)CP(=O)(O)OC[C@H]1O[C@@H](n2cnc3c(NCc4ccccc4)ncnc32)[C@H](O)[C@@H]1O [PSB 12379]

SMILES: CC(C)c1nc(CN(C)C(=O)N[C@H](C(=O)N[C@@H](Cc2ccccc2)C[C@H](O)[C@H](Cc2ccccc2)NC(=O)OCc2cncs2)C(C)C)cs1 [ritonavir]
clinical symptoms in a disease mouse model [4]: alleviating clinical symptoms | CD95–PLCγ1 interaction [5]: disrupt
